From PMC6514812, “[^18F]Fluoroethyltriazolyl Monocyclam Derivatives as Imaging Probes for the Chemokine Receptor CXCR4” (Molecules, 2019)
Like-named read-outs stand apart in the source and are kept apart here. Values belong to the compound of their own block, whether it stands above or below them. Non-standard residues stand in square brackets, D forms with d. Residues, ends and D or L forms follow the SMILES beside them. Groups on a side chain read outwards from the residue. *: point of attachment. DOTA = O=C(O)CN1CCN(CC(=O)O)CCN(CC(=O)*)CCN(CC(=O)O)CC1; 2Nal = N[C@@H](Cc1ccc2ccccc2c1)C(=O)O; dNMeOrn = CN[C@H](CCCN)C(=O)O; 4Amb = NCc1ccc(C(=O)O)cc1

Key:
CXCR4 [1] = biological target: T1, CXCR4 (Homo sapiens, UniProt P61073); experiment: Saturation binding assay in PC3-CXCR4 cells
T1 construct: expressed in transfected cells; host or cells: PC3 (human prostate cancer) cells stably transduced with CXCR4
Protocol: To determine the dissociation constants, saturation binding assays were performed in the PC3-CXCR4 cells. The cells were plated as described above, and approximately 5 nM of the radioligand was added to each well. Then the corresponding non-radioactive ligand was added to give a final concentration in the range 0.001–10,000 nM. A total of eight concentrations were tested, and each concentration was tested in triplicate. The samples were washed and counted as described above. Non-specific binding was subtracted, and Kd values were determined by performing a nonlinear one site binding curve fit with equation y = (Bmax · x)/(Kd + x). Values are expressed as Kd ± standard deviation (Supplemental Data, Figure S8).

CXCR4 [2] = biological target: T1, CXCR4; experiment: Competition binding assay vs [^68Ga]Pentixafor in PC3-CXCR4 cells
Protocol: PC3-CXCR4 cells were plated in 12-well plates at a density of 500,000 cells per well and incubated for 48 h at 37 °C/5% CO2. Prior to the binding assay the cells were incubated in fresh media and 370–555 kBq of [^68Ga]Pentixafor or [^18F]RPS-544 was added to each well. The corresponding concentration of [^68Ga]Pentixafor in each well was 100 nM, and the concentration of [^18F]RPS-544 was approximately 5 pM. Then non-radioactive ligands were added to give a final ligand concentration in the range 0.001–10,000 nM. A total of eight concentrations were studied, and each concentration was tested in triplicate. The cells were incubated for 60 min at 37 °C/5% CO2. The media was removed under suction, the cells were washed with cold PBS 1X and detached and transferred to tubes for counting in 1 M NaOH. The cells were counted in a Wizard^2 Gamma Counter (PerkinElmer, Waltham, MA, USA). Non-specific binding was subtracted, and the IC50 values were determined by assuming a simple competitive binding interaction and fitting the data to a sigmoidal Hill plot in Origin 9.0 (OriginLab, Northampton, MA, USA). Potencies are expressed as IC50 ± standard deviation (Supplemental Data, Figure S7).

PC3-CXCR4 cells = experiment: Cell-associated activity in PC3-CXCR4 cells; type: cell-based, human; settings: 1 h
Protocol: Maximum cell-associated activity was calculated by subtracting the cell uptake of the radioactive ligand at the highest non-radioactive ligand concentration of 10 µM (which we considered to be non-specific uptake/binding) from the cell uptake at the lowest non-radioactive ligand concentration of 10^−5 µM.

[3] = test system: PC3-CXCR4 xenograft tumors; experiment: Biodistribution in mice bearing bilateral PC3-WT/PC3-CXCR4 xenograft tumors; type: in vivo, BALB/c mice; settings: 2 h p.i.
Protocol: (§1) All animal studies were approved by the Institutional Animal Care and Use Committee of Weill Cornell Medicine (Protocol Number: 2015-0066) and were undertaken in accordance with the guidelines set forth by the USPHS Policy on Humane Care and Use of Laboratory Animals. Animals were housed under standard conditions in approved facilities with 12 h light/dark cycles. Food and water was provided ad libitum throughout the course of the studies. Hairless 6-to-8-week old male BALB/c inbred athymic nude mice (Jackson Laboratory, Bar Harbor, ME, USA) were inoculated bilaterally with 0.2 mL of a 1:1 mixture of 10^7 PC3-CXCR4 cells in PBS and Matrigel (Corning, Tewksbury, MA, USA) subcutaneously in the left shoulder and 0.2 mL of a 1:1 mixture of 10^7 PC3-WT cells in PBS and Matrigel subcutaneously in the right shoulder. Imaging and biodistribution studies were performed three weeks post-implantation, when tumors were approximately 100–300 mm^3.
(§2) For the biodistribution studies, tumor-bearing animals (n = 5/compound/time point) were injected intravenously with 50–100 μL of a 9% v/v EtOH/saline solution containing approximately 1.1 MBq of the radioligand. […] The mice were euthanized at 1 or 2 h p.i. and tissues including blood, heart, lungs, liver, small intestine, large intestine, stomach (with contents), spleen, pancreas, kidneys, muscle, bone, PC3-WT tumors, PC3-CXCR4 tumors, and tail were collected. All organs were weighed and placed in test tubes for counting in a Wizard^2 Gamma Counter (PerkinElmer, Waltham, MA, USA). For comparison, 1% injected activity standards were prepared and counted along with the tissue samples. The tails were counted to correct for any dose extravasation. Activity in each tissue was corrected for decay and for injected activity and expressed as percent injected dose per gram of tissue (%ID/g) ± standard error.

[4] = as above; type: in vivo, BALB/c mice; settings: male, BALB/c athymic nude, mouse, iv, total radioactivity; for tissue to tissue ratio at 2 h: 2 h p.i.
Protocol: as §1, §2

T1 sequence (P61073 whole entry): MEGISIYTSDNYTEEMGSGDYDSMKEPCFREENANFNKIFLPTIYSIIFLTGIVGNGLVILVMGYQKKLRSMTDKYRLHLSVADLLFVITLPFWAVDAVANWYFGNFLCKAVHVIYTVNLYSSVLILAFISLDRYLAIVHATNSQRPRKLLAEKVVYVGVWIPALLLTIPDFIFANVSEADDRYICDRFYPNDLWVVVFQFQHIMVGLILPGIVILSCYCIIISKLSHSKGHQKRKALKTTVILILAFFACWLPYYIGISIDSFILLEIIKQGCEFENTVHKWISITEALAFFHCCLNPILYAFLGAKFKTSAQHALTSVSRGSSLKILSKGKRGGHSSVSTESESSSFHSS

Kd (CXCR4 [1]; saturation binding, PC3-CXCR4 cells): ~1.7 µM
Hill Slope, Saturation Binding Experiment (CXCR4 [1]; value ± SD): 0.98 ± 0.19
IC50 (CXCR4 [2]; vs 100 nM [^68Ga]Pentixafor, PC3-CXCR4 cells, 60 min 37 °C): ~1.5 µM
Hill Slope, Competitive Binding Experiment (CXCR4 [2]; vs [^68Ga]Pentixafor, value ± SD): 0.96 ± 0.10
SMILES: FCCn1cc(NCc2ccc(CN3CCCNCCNCCCNCC3)cc2)nn1 [RPS-546]
Cell-Associated Activity (PC3-CXCR4 cells): 1.2 ± 0.1 %IA

PC3-CXCR4 Tumor-to-Tissue Ratio Blood [3]: 32.1 ± 0.1
PC3-CXCR4 ratio to all normal tissue except kidneys [3]: greater than 10
tissue to tissue ratio at 1 h ([4]; PC3-CXCR4 tumor and PC3-WT tumor, 1 h p.i., read-out: PC3-CXCR4 Tumor-to-Tissue Ratio PC3-WT): 2 ± 0.2
tissue to tissue ratio at 2 h ([4]; PC3-CXCR4 tumor and PC3-WT tumor, read-out: PC3-CXCR4 Tumor-to-Tissue Ratio PC3-WT): 2.8 ± 0.1
tissue to tissue ratio at 1 h ([4]; PC3-CXCR4 tumor and blood, 1 h p.i., read-out: PC3-CXCR4 Tumor-to-Tissue Ratio Blood): 11.4 ± 0.2
tissue to tissue ratio at 2 h ([4]; PC3-CXCR4 tumor and blood, read-out: PC3-CXCR4 Tumor-to-Tissue Ratio Blood): 31.1 ± 0.1
tissue to tissue ratio at 1 h ([4]; PC3-CXCR4 tumor and bone, 1 h p.i., read-out: PC3-CXCR4 Tumor-to-Tissue Ratio Bone): 28.7 ± 0.2
tissue to tissue ratio at 2 h ([4]; PC3-CXCR4 tumor and bone, read-out: PC3-CXCR4 Tumor-to-Tissue Ratio Bone): 47.2 ± 0.1
tissue to tissue ratio at 1 h ([4]; PC3-CXCR4 tumor and kidneys, 1 h p.i., read-out: PC3-CXCR4 Tumor-to-Tissue Ratio Kidneys): 4 ± 0.2
tissue to tissue ratio at 2 h ([4]; PC3-CXCR4 tumor and kidneys, read-out: PC3-CXCR4 Tumor-to-Tissue Ratio Kidneys): 5.3 ± 0.1
tissue to tissue ratio at 1 h ([4]; PC3-CXCR4 tumor and liver, 1 h p.i., read-out: PC3-CXCR4 Tumor-to-Tissue Ratio Liver): 10.8 ± 0.2
tissue to tissue ratio at 2 h ([4]; PC3-CXCR4 tumor and liver, read-out: PC3-CXCR4 Tumor-to-Tissue Ratio Liver): 10.8 ± 0.1
tissue to tissue ratio at 1 h ([4]; PC3-CXCR4 tumor and lungs, 1 h p.i., read-out: PC3-CXCR4 Tumor-to-Tissue Ratio Lungs): 11.8 ± 0.2
tissue to tissue ratio at 2 h ([4]; PC3-CXCR4 tumor and lungs, read-out: PC3-CXCR4 Tumor-to-Tissue Ratio Lungs): 17.1 ± 0.1
tissue to tissue ratio at 1 h ([4]; PC3-CXCR4 tumor and muscle, 1 h p.i., read-out: PC3-CXCR4 Tumor-to-Tissue Ratio Muscle): 56.1 ± 0.2
tissue to tissue ratio at 2 h ([4]; PC3-CXCR4 tumor and muscle, read-out: PC3-CXCR4 Tumor-to-Tissue Ratio Muscle): 101.2 ± 0.1
tissue uptake at 1 h ([4]; PC3-CXCR4 tumor, 1 h p.i., read-out: Maximum PC3-CXCR4 tumor activity): 14.6 ± 2.7 %ID/g
SMILES: CN1C(=O)[C@@H](Cc2ccc(O)cc2)NC(=O)CNC(=O)[C@H](Cc2ccc3ccccc3c2)NC(=O)[C@H](CCCNC(=N)N)NC(=O)[C@H]1CCCNC(=O)c1ccc(CNC(=O)CN2CCN(CC(=O)O)CCN(CC(=O)O)CCN(CC(=O)O)CC2)cc1 (68Ga complex, metal not drawn) [Pentixafor, reference compound] (cyclo([dY][dNMeOrn]([4Amb-DOTA])R[2Nal]G))
